# Test results: patent US9790496B2, “Microrna compounds and methods for modulating MIR-21 activity” (Regulus Therapeutics, Inc., priority 2011, dated 2017)
# Assays:
# miR-21 = miR-21 luciferase sensor assay in Hela cells; assay type: cell-based
# Procedure: The compounds were assessed for miR-21 inhibitory activity in a luciferase assay. A microRNA luciferase sensor construct was engineered using pGL3-MCS2 (Promega). The construct was introduced into Hela cells to test the ability of anti-miR compounds to inhibit activity of miR-21. In this assay, miR-21 present in the Hela cells binds to its cognate site(s) in the luciferase sensor construct, and suppresses luciferase expression. When the appropriate anti-miR is introduced into the cells, it binds to miR-21 and relieves suppression of luciferase expression. Thus, in this assay anti-miRs that are effective inhibitors of miR-21 expression will cause an increase in luciferase expression.
# Day 1: Hela cells (ATCC), stably transfected with a luciferase construct engineered to contain a sequence complementary of miR-21, were seeded in T-170 flasks (BD Falcon) at 3.5*10^6 cells/flask. Hela cells were grown in Dulbecco's Modified Eagle Medium with High Glucose (Invitrogen).
# Day 2: Each flask of Hela cells was transfected with 0.5 ug of a phRL sensor plasmid (Promega) expressing Renilla to be used in normalization. Hela cells were transfected using 20 ul Lipofectamine 2000/flask (Invitrogen). After 4 hours of transfection, cells were washed with PBS and trypsinized. Hela cells were plated at 40 k/well in 24 well plates (BD Falcon) and left overnight.
# Day 3: Hela cells were transfected with anti-miRs using Lipofectin (Invitrogen) at 2.5 ul Lipofectin/100 nM ASO/ml Opti-MEM I Reduced Serum Medium (Invitrogen) for 4 hours. After ASO transfection, Hela cells were refed with Dulbecco's Modified Eagle Medium with High Glucose (Invitrogen).
# Day 4: Hela cells are passively lysed and luciferase activity measured using the Dual-Luciferase Reporter Assay System (Promega).
# The luciferase assay was performed to test the ability of anti-miRs with the nucleoside patterns described herein to inhibit the activity of miR-21. Results were compared to a ‘mock’ treatment, in which cells received no anti-miR treatment. The experiment was repeated and results of two experimental replicates are shown in the following Table B, as the luciferase value normalized to beta-galactosidase activity.
# The luciferase assay was performed as described herein to test the ability of anti-miRs in Table F to inhibit the activity of miR-21. Results were compared to a ‘mock’ treatment, in which cells received no anti-miR treatment. The experiment was repeated and results of two experimental replicates are shown in the following Table D, as fold change in luciferase value relative to the mock treatment.
# [1] = test system: collagen 1A1 and collagen 3A1 expression in kidney, unilateral ureteral obstruction (UUO) model; assay: UUO model of kidney fibrosis: kidney collagen 1A1 and collagen 3A1 expression by real-time PCR; assay type: in vivo, mice; settings: UUO; 20 mg/kg at days -5, -3, +3; kidney at day 10
# Procedure: Unilateral ureteral obstruction (UUO) is a well-established experimental model of renal injury leading to interstitial fibrosis, and thus is used as an experimental model that is reflective of human kidney disease. UUO is induced by surgically ligating a single ureter. As fibrosis is characterized by an increase in collagen, the presence and extent of kidney fibrosis may be determined by measuring collagen content. Both collagen 1A1 (Col 1A1) and collagen 3A1 (Col 3A1) are measured to assess collagen content. Kidney fibrosis may be visualized by staining tissue samples with picro-sirius red to detect increases in collagen content. Kidney fibrosis may also be observed by measuring the amount of hydroxyproline, which is a major component of collagen, in a sample.
# The cEt-containing anti-miR-21 compounds found to be active in the luciferase assay were tested in the UUO model of kidney fibrosis. 25919 comprising 2′-MOE and 2′-fluoro modifications is known to inhibit miR-21 activity in vivo and was included as a positive control. Groups of 8 animals each were treated as follows: UUO only, UUO with PBS, or UUO with anti-miR-21 compound. Relative to the day of the UUO procedure, PBS or anti-miR-21 compound was administered at days −3, −1, and +5. Anti-miR-21 compounds were administered at a dose of 20 mg/kg. As the anti-miR compounds were administered prior to the UUO procedure, this dosing regimen is considered a prophylactic treatment. At day 11, animals were sacrificed and kidney was isolated for measurement of collagen expression. Collagen expression was measured by real-time PCR and normalized first to GAPDH and then to the sham control animals. […]
# [2] = test system: ischemia reperfusion injury/nephrectomy (IR/Nx) model; assay: Ischemia reperfusion injury/nephrectomy (IR/Nx) model: urinary albumin to creatinine ratio; assay type: in vivo, mouse
# From the text: An ischemia reperfusion injury/nephrectomy (IR/Nx) model is created in the mouse through temporary unilateral clamping of an artery in one kidney, which leads to tubule damage, inflammation, and fibrosis, followed by removal of the second kidney at a later timepoint. In this model, the acute kidney dysfunction phase is useful to test candidate agents for the treatment of acute kidney injury (i.e. up to about the first 5 days), and the later phases of kidney dysfunction are useful to model chronic fibrosis (i.e. after about the first 5 days).
# Anti-miR-21 compounds were tested in the IR/Nx model. 25109, a 6-base mismatch to miR-21, was used as a control compound ([…]; where nucleosides not followed by a subscript indicate β-deoxynucleosides; nucleosides followed by a subscript “E” indicate 2′-MOE nucleosides; nucleosides followed by a subscript “S” indicate S-cEt nucleosides; and all internucleoside linkages are phosphorothioate internucleoside linkages).
# Unilateral IR was induced for a period of 30 minutes. Treatment groups were as follows: sham IR procedure; IR with PBS administered subcutaneously; IR with mismatched control 25109 administered subcutaneously at a dose of 20 mg/kg; IR with anti-miR-21 compound 25070 administered subcutaneously at a dose of 20 mg/kg; and IR with anti-miR-21 compound 25923 administered subcutaneously at a dose of 20 mg/kg. PBS or anti-miR was administered on days 2, 3, 4, and 8 following IR. On day 8, the healthy kidney was removed by nephrectomy from each animal, and animals were sacrificed on day 9. Just prior to sacrifice, urine was collected by direct bladder puncture.
# Urinary albumin to creatinine ratio was measured in the urine from each mouse. […] The geometric mean of the albumin to creatinine ratio in each group of mice was 16 μgAlb/mgCr (nephrectomy-only control), 127 μgAlb/mgCr (IR/Nx, PBS control), 140 μgAlb/mgCr (IR/Nx, 25109 control), 40 μgAlb/mgCr (IR/Nx, 25070), and 31 μgAlb/mgCr (IR/Nx, 25923). Blood urea nitrogen and serum creatinine levels were similar across all IR/Nx mice, and were elevated relative to nephrectomy-only control mice (data not shown).
# [3] = Ex vivo liver homogenate stability assay (HPLC-TOF MS); settings: 24 hours, 37° C.; for ex vivo (liver) N %↓: 5 μM oligonucleotide in liver homogenate (50 mg tissue per ml), decrease of full-length compound; for ex vivo (liver) % N-1 / ex vivo (liver) % Endo: 5 μM oligonucleotide in liver homogenate; for ex vivo (liver) % N-1: compound lacking one terminal nucleoside; for ex vivo (liver) % Endo: endonuclease products
# [4] = In vivo stability: compound in kidney tissue after administration to mice; settings: kidney tissue after administration to mice; for in vivo (kidney) N-1(%): compound lacking one terminal nucleoside; for in vivo (kidney) N(%): full-length compound
Sequence,inhibition of miR-21 in the luciferase assay (in words) (miR-21; Hela cells),fold change in luciferase value relative to the mock treatment (miR-21; concentration of anti-miR compound 0.2 (unit not given)),fold change in luciferase value relative to the mock treatment (miR-21; concentration of anti-miR compound 0.6 (unit not given)),fold change in luciferase value relative to the mock treatment (miR-21; concentration of anti-miR compound 1.9 (unit not given)),fold change in luciferase value relative to the mock treatment (miR-21; concentration of anti-miR compound 5.6 (unit not given)),fold change in luciferase value relative to the mock treatment (miR-21; concentration of anti-miR compound 16.7 (unit not given)),fold change in luciferase value relative to the mock treatment (miR-21; concentration of anti-miR compound 50.0 (unit not given)),"reduction of collagen 1A1 expression (in words, FIG. 2A) [1]","reduction of collagen 3A1 expression (in words, FIG. 2B) [1]","reduction in urinary albumin to creatinine ratio (in words) ([2]; s.c. 20 mg/kg on days 2, 3, 4, 8)","geometric mean of the urinary albumin to creatinine ratio ([2]; s.c. 20 mg/kg on days 2, 3, 4, 8, urine day 9, PBS control 127, nephrectomy-only 16) [μgAlb/mgCr]",ex vivo (liver) N %↓ [3] [%],ex vivo (liver) % N-1 [3] [%],ex vivo (liver) % Endo [3] [%],in vivo (kidney) N-1(%) [4] [%],in vivo (kidney) N(%) [4] [%]
"AECSATCSAGTCSTGAUSAAGCSTAS (ACATCAGTCTGATAAGCTA; modified nucleosides coded in name, code key not given here) [Compound 25923, 25070 variant: 3'-terminal nucleoside is a cEt nucleoside rather than 2'-MOE nucleoside]",demonstrated inhibition of miR-21 in a dose-dependent manner,1.06,1.01,1.10,5.18,11.34,10.81,reduced collagen 1A1 and collagen 3A1 expression by a statistically significant amount,reduced collagen 1A1 and collagen 3A1 expression by a statistically significant amount,statistically significant reductions,31,,,,,
"AECSATCSAGTCSTGAUSAAGCSUSAS (ACATCAGTCTGATAAGCTA; modified nucleosides coded in name, code key not given here) [Compound 25221]",,,,,,,,reduced collagen 1A1 and collagen 3A1 expression by a statistically significant amount,reduced collagen 1A1 and collagen 3A1 expression by a statistically significant amount,,,3,0,3,4 ± 1,76 ± 4
"AECSATCSASGTCSUSGAUSASAGCSUSAE (ACATCAGTCTGATAAGCTA; modified nucleosides coded in name, code key not given here) [Compound 25220]",,,,,,,,reduced collagen 1A1 and collagen 3A1 expression by a statistically significant amount,reduced collagen 1A1 and collagen 3A1 expression by a statistically significant amount,,,3,0,3,16 ± 6,67 ± 16
